Test results from ChEMBL document CHEMBL5370642, “Synthesis and Bioevaluation of 3-(Arylmethylene)indole Derivatives: Discovery of a Novel ALK Modulator with Antiglioblastoma Activities” (J Med Chem, 2023).
The source made the active and inactive calls. The calls are words filed in the database; no cut-off is given here.

Legend:
GL261 [1] = test: Induction of cell cycle arrest in mouse GL261 cells assessed as accumulation of cells at S phase at 0.5 to 2 uM incubated for 24 to 72 hrs by flow cytometry; type: functional; details: dose 0.5-2 µM, time 24-72 hrs
HeLa = test: Anti-proliferative activity against human HeLa cells assessed as inhibition rate at 160 uM incubated for 24 to 72 hrs by CCK8 assay relative to control; type: functional; details: time 24-72 hrs
[2] = Half life in C57BL6/J mouse at 5 mg/kg, ip measured upto 24 hrs by LC-MS/MS analysis; type: ADME, organism-based; details: in vivo
[3] = Volume of distribution at steady state in C57BL6/J mouse at 5 mg/kg, iv measured upto 24 hrs by LC-MS/MS analysis; type: ADME, organism-based; details: in vivo, read-out: Vdss
[4] = target: ALK tyrosine kinase receptor (Mus musculus) (UniProt P97793); test: Binding affinity to ALK in mouse GL261 cell lysate assessed as immunoprecipitation measured after overnight incubation by pull-down assay; type: subcellular
Sequence of ALK tyrosine kinase receptor (Mus musculus) (P97793 whole entry): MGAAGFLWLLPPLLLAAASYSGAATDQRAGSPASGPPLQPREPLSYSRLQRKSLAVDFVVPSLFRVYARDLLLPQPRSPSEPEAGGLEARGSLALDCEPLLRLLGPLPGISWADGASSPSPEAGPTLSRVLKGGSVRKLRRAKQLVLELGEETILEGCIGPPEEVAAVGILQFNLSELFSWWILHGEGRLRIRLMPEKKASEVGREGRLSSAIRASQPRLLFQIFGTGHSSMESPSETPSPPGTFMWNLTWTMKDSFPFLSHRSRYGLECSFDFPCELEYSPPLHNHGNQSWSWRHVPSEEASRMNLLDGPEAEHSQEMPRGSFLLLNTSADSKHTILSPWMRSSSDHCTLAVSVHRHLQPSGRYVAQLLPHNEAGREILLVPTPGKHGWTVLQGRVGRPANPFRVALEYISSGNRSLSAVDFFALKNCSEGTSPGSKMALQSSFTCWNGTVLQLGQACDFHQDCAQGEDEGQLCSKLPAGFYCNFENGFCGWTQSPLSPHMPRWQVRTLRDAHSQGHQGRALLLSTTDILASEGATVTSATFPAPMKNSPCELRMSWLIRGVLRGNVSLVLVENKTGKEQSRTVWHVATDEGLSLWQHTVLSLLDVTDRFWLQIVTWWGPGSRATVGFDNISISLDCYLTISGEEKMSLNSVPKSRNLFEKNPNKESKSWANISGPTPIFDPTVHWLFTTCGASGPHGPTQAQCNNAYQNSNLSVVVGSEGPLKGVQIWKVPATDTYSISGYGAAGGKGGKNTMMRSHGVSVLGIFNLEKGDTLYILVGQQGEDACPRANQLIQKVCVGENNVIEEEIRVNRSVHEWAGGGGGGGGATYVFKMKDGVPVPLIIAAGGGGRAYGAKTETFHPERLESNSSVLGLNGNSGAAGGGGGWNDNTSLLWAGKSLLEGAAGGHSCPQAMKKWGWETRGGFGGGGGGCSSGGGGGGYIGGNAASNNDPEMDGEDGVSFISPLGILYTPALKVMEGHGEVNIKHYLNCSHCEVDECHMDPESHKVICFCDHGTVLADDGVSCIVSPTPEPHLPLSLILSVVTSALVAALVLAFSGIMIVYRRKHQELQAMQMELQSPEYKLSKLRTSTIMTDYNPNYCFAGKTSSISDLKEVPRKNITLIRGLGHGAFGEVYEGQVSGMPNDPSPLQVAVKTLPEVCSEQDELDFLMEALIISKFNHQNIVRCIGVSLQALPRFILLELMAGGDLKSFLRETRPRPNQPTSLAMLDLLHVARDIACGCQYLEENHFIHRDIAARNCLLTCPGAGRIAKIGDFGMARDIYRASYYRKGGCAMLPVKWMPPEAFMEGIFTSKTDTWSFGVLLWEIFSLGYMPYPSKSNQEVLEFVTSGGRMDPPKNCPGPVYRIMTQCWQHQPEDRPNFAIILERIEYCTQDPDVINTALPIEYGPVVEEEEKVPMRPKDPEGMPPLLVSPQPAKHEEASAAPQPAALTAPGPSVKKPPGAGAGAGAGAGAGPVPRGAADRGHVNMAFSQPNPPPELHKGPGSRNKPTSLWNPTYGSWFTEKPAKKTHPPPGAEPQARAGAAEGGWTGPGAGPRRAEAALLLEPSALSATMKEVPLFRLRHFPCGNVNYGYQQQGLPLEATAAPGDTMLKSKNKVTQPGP

[5] = target: T1, ALK tyrosine kinase receptor (Homo sapiens, UniProt Q9UM73); details: U-87 MG, dose 0.5-2 µM, time 24.0 hrs
T1 sequence (Q9UM73 19-1620 limits assumed): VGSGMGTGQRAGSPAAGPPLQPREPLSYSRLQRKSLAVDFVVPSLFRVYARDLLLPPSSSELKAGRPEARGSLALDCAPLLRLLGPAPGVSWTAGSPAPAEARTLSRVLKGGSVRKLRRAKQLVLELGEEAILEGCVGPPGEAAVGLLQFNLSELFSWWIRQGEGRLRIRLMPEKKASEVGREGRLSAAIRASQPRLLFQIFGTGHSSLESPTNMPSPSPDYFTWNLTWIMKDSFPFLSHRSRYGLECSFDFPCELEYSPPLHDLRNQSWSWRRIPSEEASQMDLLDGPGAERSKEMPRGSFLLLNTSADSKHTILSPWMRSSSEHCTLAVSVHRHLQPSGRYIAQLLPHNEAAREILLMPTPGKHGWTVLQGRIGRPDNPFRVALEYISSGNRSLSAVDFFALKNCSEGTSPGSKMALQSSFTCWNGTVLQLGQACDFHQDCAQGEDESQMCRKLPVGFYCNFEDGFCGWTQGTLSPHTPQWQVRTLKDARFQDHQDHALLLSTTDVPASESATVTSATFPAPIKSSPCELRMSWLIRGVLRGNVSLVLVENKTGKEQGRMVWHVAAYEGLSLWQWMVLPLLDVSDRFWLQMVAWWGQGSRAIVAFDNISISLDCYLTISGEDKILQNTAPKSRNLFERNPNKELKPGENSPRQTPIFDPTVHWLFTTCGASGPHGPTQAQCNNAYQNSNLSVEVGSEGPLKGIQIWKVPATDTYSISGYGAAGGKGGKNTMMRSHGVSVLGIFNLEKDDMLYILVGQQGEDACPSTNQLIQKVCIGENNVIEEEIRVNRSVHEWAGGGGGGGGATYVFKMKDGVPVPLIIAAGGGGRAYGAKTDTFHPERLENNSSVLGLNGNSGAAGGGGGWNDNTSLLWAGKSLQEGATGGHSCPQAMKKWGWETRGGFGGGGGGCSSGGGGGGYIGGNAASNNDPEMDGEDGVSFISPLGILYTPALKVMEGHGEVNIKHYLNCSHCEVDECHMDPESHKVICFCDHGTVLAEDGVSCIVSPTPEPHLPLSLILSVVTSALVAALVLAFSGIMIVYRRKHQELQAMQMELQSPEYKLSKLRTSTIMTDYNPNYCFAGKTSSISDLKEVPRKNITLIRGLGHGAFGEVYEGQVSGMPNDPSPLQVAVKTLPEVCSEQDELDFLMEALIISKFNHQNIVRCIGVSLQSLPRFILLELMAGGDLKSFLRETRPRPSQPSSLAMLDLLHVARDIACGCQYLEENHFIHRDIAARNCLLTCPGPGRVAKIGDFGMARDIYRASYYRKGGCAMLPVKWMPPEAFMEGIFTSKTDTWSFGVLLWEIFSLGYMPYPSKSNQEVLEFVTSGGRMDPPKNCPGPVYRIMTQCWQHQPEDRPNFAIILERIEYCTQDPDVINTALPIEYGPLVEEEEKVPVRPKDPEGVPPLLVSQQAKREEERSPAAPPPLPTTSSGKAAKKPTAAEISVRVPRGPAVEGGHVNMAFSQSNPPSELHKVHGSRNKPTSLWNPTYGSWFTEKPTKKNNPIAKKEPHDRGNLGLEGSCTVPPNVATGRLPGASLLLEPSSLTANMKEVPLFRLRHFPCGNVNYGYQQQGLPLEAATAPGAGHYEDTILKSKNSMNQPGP

GL261 [6] = test: Anti glioblastoma activity against mouse GL261-mNeonGreenLuc cells stereotaxically injected in corpus striatum of orthotopic glioblastoma mouse model assessed as shrunken tumor tissue at 5 mg/kg, ip once daily measured on day 21 by H and E staining analysis; type: functional, organism-based
GL261 [7] = test: Induction of apoptosis in mouse GL261 cells assessed as increase in annexin-V+/PI- cells incubated for 24 to 72 hrs by flow cytometry; type: functional, cell-based; details: dose 0.5-2 µM, time 24-72 hrs
U-87 MG [8] = test: Anti-proliferative activity against human U-87 MG cells assessed as decrease in cell viability at 0.5 to 10 uM by CCK8 assay; type: functional, cell-based; details: U-87MG ATCC, dose 0.5-10 µM, time 24-72 hrs, TDE = time-dependent effect
[9] = MRT (0 to 8hrs) in C57BL6/J mouse at 5 mg/kg, iv measured upto 24 hrs by LC-MS/MS analysis; type: ADME, organism-based; details: in vivo
[10] = Tmax in C57BL6/J mouse at 5 mg/kg, ip measured upto 24 hrs by LC-MS/MS analysis; type: ADME, organism-based; details: in vivo
GL261 [11] = test: Induction of apoptosis in mouse GL261 cells assessed as increase in annexin-V+/PI- cells at 0.5 to 2 uM by flow cytometry; type: functional, cell-based; details: dose 0.5-2 µM, time 24-72 hrs, TDE = time-dependent effect
GL261 [12] = test: Anti-proliferative activity against mouse GL261 cells assessed as inhibition rate at 2 uM incubated for 72 hrs by CCK8 assay relative to control; type: functional
[13] = AUC (0 to infinity) in C57BL6/J mouse at 5 mg/kg, ip measured upto 24 hrs by LC-MS/MS analysis; type: ADME, organism-based; set-up: time < 24 hrs, dose 5 mg/kg, route ip; details: in vivo
GL261 [14] = test: Anti glioblastoma activity against mouse GL261-mNeonGreenLuc cells stereotaxically injected in corpus striatum of orthotopic glioblastoma mouse model assessed as inhibition of tumor growth at 5 mg/kg, ip once daily measured on day 21 by immunofluorescence imaging analysis; type: functional, organism-based
GL261 [15] = test: Induction of apoptosis in mouse GL261 cells assessed as increase in cleaved PARP level measured at 0.5 to 2 uM after 24 hrs by Western blot analysis; type: functional, cell-based; details: dose 0.5-2 µM
GL261 [16] = test: Induction of autophagy in mouse GL261 cells assessed as decrease in mTOR phosphorylation at 0.5 to 2 uM incubated for 24 hrs by Western blot analysis; type: functional, cell-based; details: dose 0.5-2 µM
[17] = AUC (0 to 8hrs) in C57BL6/J mouse at 5 mg/kg, iv measured upto 24 hrs by LC-MS/MS analysis; type: ADME, organism-based; set-up: dose 5 mg/kg, time < 24 hrs, route iv; details: in vivo
GL261 [18] = test: Induction of apoptosis in mouse GL261 cells assessed as increase in cleaved caspase 3 level measured at 0.5 to 2 uM after 24 hrs by Western blot analysis; type: functional, cell-based; details: dose 0.5-2 µM
GL261 [19] = test: Induction of mitochondrial membrane potential loss in mouse GL261 cells at 0.5 to 2 uM incubated for 24 hrs by JC-1 staining based flow cytometry assay; type: functional, cell-based; details: dose 0.5-2 µM
[20] = Bioavailability in C57BL6/J mouse at 5 mg/kg, […] measured upto 24 hrs by LC-MS/MS analysis; type: ADME, organism-based; details: in vivo
GL261 [21] = test: Anti-glioblastoma activity against mouse GL261-mNeonGreenLuc cells stereotaxically injected in corpus striatum of orthotopic glioblastoma mouse model assessed as decrease in Ki67 expression in GFP-labeled glioblastoma tissue at 5 mg/kg, ip once daily measured on day 21 by confocal microscopy; type: functional, organism-based
GL261 [22] = test: Induction of cell cycle arrest in mouse GL261 cells assessed as accumulation at S phase at 1 uM incubated for 72 hrs by flow cytometry (reference value: 13.9%); type: functional, cell-based
GL261 [23] = test: In vivo induction of apoptosis in mouse GL261 cells transfected with mRFP-GFPLC3 adenovirus allografted in C57BL/6J mouse model assessed as increase in cleaved caspase 3 level in tumor tissue at 2.5 to 5 mg/kg, ip by immunofluorescence assay; type: functional, organism-based; details: dose 2.5-5 mg/kg
[24] = AUC (0 to infinity) in C57BL6/J mouse at 5 mg/kg, iv measured upto 24 hrs by LC-MS/MS analysis; type: ADME, organism-based; set-up: dose 5 mg/kg, time < 24 hrs, route iv; details: in vivo
[25] = target: ALK tyrosine kinase receptor (Mus musculus) (UniProt P97793); test: Binding affinity to ALK in mouse GL261 cell lysate assessed as increase in thermal stability of the protein measured after 4 hrs by […] based CETSA analysis; type: subcellular
[26] = AUC (0 to 8hrs) in C57BL6/J mouse at 5 mg/kg, ip measured upto 24 hrs by LC-MS/MS analysis; type: ADME, organism-based; set-up: dose 5 mg/kg, time < 24 hrs, route ip; details: in vivo
GL261 [27] = test: Induction of autophagy in mouse GL261 cells transfected with mRFP-GFPLC3 adenovirus assessed as yellow fluorescence at 2 uM incubated for 48 hrs by confocal microscopy; type: functional, cell-based
U-87 MG [28] = test: Anti-proliferative activity against human U-87 MG cells assessed as cell viability incubated for 2 hrs by CCK8 assay; type: functional, cell-based, U-87MG ATCC
[29] = target: T1, ALK tyrosine kinase receptor; details: U-87 MG, dose 0.5-2 µM, time 24.0 hrs; remark: listed apart in the source
[30] = Apparent volume of distribution in C57BL6/J mouse at 5 mg/kg, iv measured upto 24 hrs by LC-MS/MS analysis; type: ADME, organism-based; details: in vivo, read-out: Vz
[31] = MRT (0 to infinity) in C57BL6/J mouse at 5 mg/kg, iv measured upto 24 hrs by LC-MS/MS analysis; type: ADME, organism-based; details: in vivo
[32] = Tmax in C57BL6/J mouse at 5 mg/kg, iv measured upto 24 hrs by LC-MS/MS analysis; type: ADME, organism-based; details: in vivo
GL261 [33] = test: Induction of autophagy in mouse GL261 cells assessed as cell viability pretreated with 5 uM CQ for 4 hrs followed by treated at 0.5 to 2 uM measured after 48 hrs by CCK8 assay; type: functional, cell-based
[34] = Cmax in C57BL6/J mouse at 5 mg/kg, iv measured upto 24 hrs by LC-MS/MS analysis; type: ADME, organism-based; set-up: dose 5 mg/kg, time < 24 hrs, route iv; details: in vivo
[35] = MRT (0 to 8hrs) in C57BL6/J mouse at 5 mg/kg, ip measured upto 24 hrs by LC-MS/MS analysis; type: ADME, organism-based; details: in vivo
[36] = target: T1, ALK tyrosine kinase receptor; details: U-87 MG, dose 0.5-2 µM, time 24.0 hrs; remark: listed apart in the source

SMILES: Cc1ccc(S(=O)(=O)n2cc(Cc3cc(C)c(O)c(C)c3)c3ccccc32)cc1
- Activity (GL261 [1]): 24.5%
- inhibition at 160 µM (HeLa): 50%
- half-life [2]: 213 min
- Vd [3]: 4.59 L/kg
- Activity [4]: Active
- inhibition [5]: Active
- Activity (GL261 [6]): Active
- Activity (GL261 [7]): Dose-Dependent Effect
- Activity (U-87 MG [8]): Tde
- MRT last at 24 h [9]: 37.8 min
- Tmax [10]: 34.8 min
- Activity (GL261 [11]): Tde
- inhibition at 2 µM (GL261 [12]): 80%
- AUC(0-inf) [13]: 0.42 µg·h/mL
- inhibition (GL261 [14]): Active
- Activity (GL261 [15]): Active
- Activity (GL261 [16]): Active
- AUC(0-t) at 24 h [17]: 0.885 µg·h/mL
- Activity (GL261 [18]): Active
- Activity (GL261 [19]): Active
- bioavailability [20]: 38.4%
- Activity (GL261 [21]): Active
- Activity (GL261 [22]): Active
- Activity (GL261 [23]): Active
- AUC(0-inf) [24]: 0.925 µg·h/mL
- Activity [25]: Active
- AUC(0-t) at 24 h [26]: 0.34 µg·h/mL
- Activity (GL261 [27]): Active
- IC50 (U-87 MG [28]): 7.25 µM
- inhibition [29]: Active
- Vd [30]: 8.89 L/kg
- MRT inf [31]: 50.4 min
- Tmax [32]: 4.8 min
- Activity (GL261 [33]): inactive
- Cmax [34]: 1.98 µg/mL
- MRT last at 24 h [35]: 135 min
- inhibition [36]: Active
